Source: ChEMBL document CHEMBL1121730, “beta-Adrenergic blocking agents. alpha- and gamma-methyl(aryloxy)propanolamines” (J Med Chem, 1981)

Target: Adrenergic receptor beta (Rattus norvegicus, UniProt P18090+P10608+P26255)
Assay: Binding affinity against Beta adrenergic receptor in C6-2B astrocytoma cells, using [125I]-iodohydroxybenzylpindolol-benzylpindolol([125I]-HYP)
Type: cell-based

Compound: C=CCc1ccccc1OC(C)C(O)CNC(C)(C)C (stereo not given)
- Kd: 15 nM

Compound: CC(C)NCC(O)C(C)Oc1ccc(Cl)c(Cl)c1 (stereo not given)
- Kd: 500 nM

Compound: Cc1ccc(OC(C)C(O)CNC(C)C)cc1C (stereo not given)
- Kd: 200 nM

Compound: CCc1ccc(OC(C)C(O)CNC(C)(C)C)cc1 (stereo not given)
- Kd: 2000 nM

Compound: Cc1ccc(OC(C)C(O)CNC(C)(C)C)cc1C (stereo not given)
- Kd: 200 nM

Compound: CCc1ccc(OC(C)C(O)CNC(C)C)cc1 (stereo not given)
- Kd: 2000 nM

Compound: CC(Oc1cccc2ccccc12)C(O)CNC(C)(C)C (stereo not given)
- Kd: 5 nM

Compound: CC(Oc1ccccc1)C(O)CNC(C)(C)C (stereo not given)
- Kd: 300 nM

Compound: CC(C)NCC(O)C(C)Oc1cccc2ccccc12 (stereo not given)
- Kd: 40 nM

Compound: C=CCc1ccccc1OC(C)C(O)CNC(C)C (stereo not given)
- Kd: 50 nM
